Among the data in PubChem BioAssay AID344 (DTP/NCI, 2004) are T/C values, retold here.

“And” between values parts separate entries of the source, which are not always exact repeats. Identical values can stand only once. Inconclusive results and toxic doses are left out.

This experiment concerns mice, LPC-1 plasma cell tumor ip, median survival T/C. The experiment in a line: NCI In Vivo Anticancer Drug Screen. Data for tumor model Lieberman Plasma Cell No. 1 (LPC-1) (intraperitoneal) in unknown mice. As to conditions: endpoint: median survival time, higher = longer survival. As for the experimental part:
The antitumor activity of compounds was measured in mice bearing transplantable tumors. Survival or tumor size were measured and the results are expressed as the measurement made in the treated group (T) divided by the measurement made in the vehicle treated control group (C). The tumor model used in this assay is Lieberman Plasma Cell No. 1 (LPC-1) (intraperitoneal) in unknown mice

[1] abbreviates: dose: 75.0 mg/kg/injection, schedule: Q01DX028 (sc), vehicle: carboxymethylcellulose (CMC).
Where [2] appears, read: dose: 0.39 mg/kg/injection, schedule: Q01DX028 (sc), vehicle: other.
Setting [3] is: dose: 0.65 mg/kg/injection, schedule: Q01DX028 (sc), vehicle: other.
Where [4] appears, read: dose: 1.08 mg/kg/injection, schedule: Q01DX028 (sc), vehicle: other.
Where [5] appears, read: dose: 1.8 mg/kg/injection, schedule: Q01DX028 (sc), vehicle: other.
[6] abbreviates: dose: 3.0 mg/kg/injection, schedule: Q01DX028 (sc), vehicle: other.

For the molecule `CC[C@H]1CN2CCc3cc(OC)c(OC)cc3[C@@H]2C[C@@H]1C[C@H]1NCCc2cc(OC)c(OC)cc21`, the T/C by setting is: (dose: 1.0 mg/kg/injection, schedule: Q01DX028 (sc), vehicle: saline) 106 % of control; (dose: 2.0 mg/kg/injection, schedule: Q01DX028 (sc), vehicle: saline) 106 % of control; (dose: 4.0 mg/kg/injection, schedule: Q01DX028 (sc), vehicle: saline) 94 % of control.
On to `O=c1ccc2ccc(O)cc2o1`, for which the T/C by setting is: (dose: 266.0 mg/kg/injection, schedule: Q01DX028 (sc), vehicle: carboxymethylcellulose (CMC)) 102 % of control; (dose: 400.0 mg/kg/injection, schedule: Q01DX028 (sc), vehicle: carboxymethylcellulose (CMC)) 97 % of control; (dose: 600.0 mg/kg/injection, schedule: Q01DX028 (sc), vehicle: carboxymethylcellulose (CMC)) 97 % of control.
For `COc1cc2oc(=O)ccc2cc1CC=C(C)C`, under “dose: 25.0 mg/kg/injection, schedule: Q01DX028 (sc), vehicle: saline”, the T/C was 100 % of control.
For the molecule `COc1cc2cccnc2c2[nH]ccc(=O)c12`, the T/C reads like this: (dose: 50.0 mg/kg/injection, schedule: Q01DX009 (sc), vehicle: saline) 100 % of control; (dose: 100.0 mg/kg/injection, schedule: Q01DX009 (sc), vehicle: saline) 92 % of control; (dose: 200.0 mg/kg/injection, schedule: Q01DX009 (sc), vehicle: saline) 102 % of control; (dose: 400.0 mg/kg/injection, schedule: Q01DX009 (sc), vehicle: saline) 104 % of control.
For the molecule `CC1(C)CC2(CC(C)(C)Oc3cc(O)ccc32)c2ccc(O)cc2O1`, the T/C (dose: 50.0 mg/kg/injection, schedule: Q01DX008 (sc), vehicle: saline) was 100 % of control; the T/C (dose: 100.0 mg/kg/injection, schedule: Q01DX008 (sc), vehicle: saline) is 97 % of control; the T/C (dose: 200.0 mg/kg/injection, schedule: Q01DX008 (sc), vehicle: saline) is 97 % of control; the T/C (dose: 400.0 mg/kg/injection, schedule: Q01DX008 (sc), vehicle: saline) was 92 % of control.
Turning to `O=c1[nH]c(=O)n(C2CC(O)C(CO)O2)cc1F` (stereo not given), the T/C is 102 % of control and 109 % of control (dose: 108.0 mg/kg/injection, schedule: Q01DX028 (sc), vehicle: saline); 97 % of control (dose: 180.0 mg/kg/injection, schedule: Q01DX028 (sc), vehicle: saline); 91 % of control (dose: 300.0 mg/kg/injection, schedule: Q01DX028 (sc), vehicle: saline); 86 % of control (dose: 500.0 mg/kg/injection, schedule: Q01DX028 (sc), vehicle: saline).
Turning to `O=NN(CCCl)C(=O)NC1CCCCC1`, the T/C by setting is: (dose: 33.0 mg/kg/injection, schedule: Q01DX028 (sc), vehicle: carboxymethylcellulose (CMC)) 111 % of control; under setting [1], 102 % of control.
For `CCC(CCC(C)C1CCC2C3CC=C4CC(OC(=O)CCC(=O)O)CCC4(C)C3CCC12C)C(C)C` (stereo not given), the T/C was 102 % of control (dose: 100.0 mg/kg/injection, schedule: Q01DX028 (sc), vehicle: water) and 100 % of control (dose: 400.0 mg/kg/injection, schedule: Q01DX028 (sc), vehicle: water).
With `CS(=O)(=O)OCCC(=O)NCNC(=O)CCOS(C)(=O)=O`, the T/C reads like this: (dose: 6.25 mg/kg/injection, schedule: Q01DX028 (sc), vehicle: carboxymethylcellulose (CMC)) 184 % of control; (dose: 12.5 mg/kg/injection, schedule: Q01DX012 (sc), vehicle: carboxymethylcellulose (CMC)) 105 % of control; (dose: 12.5 mg/kg/injection, schedule: Q01DX028 (sc), vehicle: carboxymethylcellulose (CMC)) 223 % of control and 276 % of control; (dose: 25.0 mg/kg/injection, schedule: Q01DX012 (sc), vehicle: carboxymethylcellulose (CMC)) 328 % of control; (dose: 25.0 mg/kg/injection, schedule: Q01DX028 (sc), vehicle: carboxymethylcellulose (CMC)) 200 % of control and 230 % of control; (dose: 50.0 mg/kg/injection, schedule: Q01DX012 (sc), vehicle: carboxymethylcellulose (CMC)) 110 % of control. Moreover, the T/C by setting is: (dose: 50.0 mg/kg/injection, schedule: Q01DX028 (sc), vehicle: carboxymethylcellulose (CMC)) 107 % of control and 121 % of control; under setting [1], 87 % of control.
Take `O=C(O)CCc1c[nH]c2ccc(N(CCCl)CCCl)cc12`: the T/C is 182 % of control (dose: 1.8 mg/kg/injection, schedule: Q01DX028 (sc), vehicle: carboxymethylcellulose (CMC)); 113 % of control (dose: 2.7 mg/kg/injection, schedule: Q01DX028 (sc), vehicle: carboxymethylcellulose (CMC)); 164 % of control (dose: 3.0 mg/kg/injection, schedule: Q01DX028 (sc), vehicle: carboxymethylcellulose (CMC)); 151 % of control (dose: 5.0 mg/kg/injection, schedule: Q01DX028 (sc), vehicle: carboxymethylcellulose (CMC)); 163 % of control (dose: 6.0 mg/kg/injection, schedule: Q01DX028 (sc), vehicle: carboxymethylcellulose (CMC)); 86 % of control (dose: 9.0 mg/kg/injection, schedule: Q01DX028 (sc), vehicle: carboxymethylcellulose (CMC)).
As for `COC(=O)c1nc(-c2ccc3c(n2)C(=O)C(N)=C(OC)C3=O)c(N)c(-c2ccc(OC)c(OC)c2O)c1C`, the T/C reads like this: under setting [2], 100 % of control; under setting [3], 100 % of control; under setting [4], 100 % of control; under setting [5], 100 % of control; under setting [6], 100 % of control; (dose: 5.0 mg/kg/injection, schedule: Q01DX028 (sc), vehicle: other) 102 % of control.
With `Cc1cc(N(CCCl)CCCl)ccc1C=Nc1ccccc1-c1ccccc1`, the T/C (dose: 23.0 mg/kg/injection, schedule: Q01DX015 (sc), vehicle: carboxymethylcellulose (CMC)) is 92 % of control and the T/C (dose: 180.0 mg/kg/injection, schedule: Q01DX015 (sc), vehicle: carboxymethylcellulose (CMC)) is 102 % of control.
With `NC(Cc1c[nH]c2ccc(N(CCCl)CCCl)cc12)C(=O)O` (stereo not given), the T/C is 235 % of control (dose: 0.23 mg/kg/injection, schedule: Q01DX028 (sc), vehicle: acid diluted with saline); 276 % of control (dose: 0.39 mg/kg/injection, schedule: Q01DX028 (sc), vehicle: acid diluted with saline); 285 % of control under setting [2]; 230 % of control (dose: 0.65 mg/kg/injection, schedule: Q01DX028 (sc), vehicle: acid diluted with saline); 164 % of control (dose: 0.65 mg/kg/injection, schedule: Q01DX028 (sc), vehicle: methylcellulose (MC)); 380 % of control under setting [3]. Moreover, the T/C is, setting by setting: (dose: 1.08 mg/kg/injection, schedule: Q01DX028 (sc), vehicle: methylcellulose (MC)) 119 % of control; under setting [4], 157 % of control; (dose: 1.8 mg/kg/injection, schedule: Q01DX028 (sc), vehicle: acid diluted with saline) 107 % of control; under setting [5], 114 % of control; (dose: 3.0 mg/kg/injection, schedule: Q01DX028 (sc), vehicle: acid diluted with saline) 97 % of control; under setting [6], 102 % of control.
`CCOc1ccccc1C(=O)Nc1ccc(Br)cc1`: the T/C by setting is: (dose: 180.0 mg/kg/injection, schedule: Q01DX Z (sc), vehicle: carboxymethylcellulose (CMC)) 97 % of control; (dose: 266.0 mg/kg/injection, schedule: Q01DX Z (sc), vehicle: carboxymethylcellulose (CMC)) 105 % of control; (dose: 400.0 mg/kg/injection, schedule: Q01DX Z (sc), vehicle: carboxymethylcellulose (CMC)) 100 % of control; (dose: 600.0 mg/kg/injection, schedule: Q01DX Z (sc), vehicle: carboxymethylcellulose (CMC)) 94 % of control.
As for `C/C(=N\N=C(N)N)c1ccc(NC(=O)Nc2ccc(/C(C)=N/N=C(N)N)cc2)cc1`, the T/C runs as follows: (dose: 10.0 mg/kg/injection, schedule: Q01DX028 (sc), vehicle: carboxymethylcellulose (CMC)) 94 % of control; (dose: 20.0 mg/kg/injection, schedule: Q01DX028 (sc), vehicle: carboxymethylcellulose (CMC)) 102 % of control; (dose: 40.0 mg/kg/injection, schedule: Q01DX028 (sc), vehicle: carboxymethylcellulose (CMC)) 105 % of control; (dose: 80.0 mg/kg/injection, schedule: Q01DX028 (sc), vehicle: carboxymethylcellulose (CMC)) 100 % of control.
`Cn1c2ccccc2c(=O)c2c(O)cc3c(c21)C=C(Br)C(C)(C)O3`: the T/C runs as follows: (dose: 9.38 mg/kg/injection, schedule: Q01DX028 (sc), vehicle: carboxymethylcellulose (CMC)) 97 % of control; (dose: 18.75 mg/kg/injection, schedule: Q01DX028 (sc), vehicle: carboxymethylcellulose (CMC)) 97 % of control; (dose: 37.5 mg/kg/injection, schedule: Q01DX028 (sc), vehicle: carboxymethylcellulose (CMC)) 107 % of control; under setting [1], 97 % of control; (dose: 150.0 mg/kg/injection, schedule: Q01DX028 (sc), vehicle: carboxymethylcellulose (CMC)) 95 % of control.
